Our source for the pest or weed control values is patent US20230077362A1 (CORTEVA AGRISCIENCE LLC, priority 2019, published 2023).

Molecules are shown by their SMILES. Where two headings read alike, the source gives them in different places.

What all share (type): in vivo
The subject of experiment [1] is Green Peach Aphid ("GPA") (Myzus persicae), wingless adult and nymph stages. The experiment can be described thus: Bioassay on green peach aphid (GPA), foliar spray on infested cabbage seedlings. Conditions: Myzus persicae, foliar, 72 h. The method, boiled down: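 Cabbage seedlings with 2-3 true leaves, infested one day earlier with 20-50 wingless adult and nymph GPA, sprayed to runoff on both leaf sides; solvent check held 20% acetone/methanol (1:1). Live aphids counted after three days at about 25° C; corrected % control = 100*(X−Y)/X versus solvent check.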

Experiment [2] concerns Beet Armyworm (Spodoptera exigua) ("BAW"), second instar larvae. The experiment can be described thus: Bioassay on beet armyworm (BAW), 128-well diet tray assay. Conditions: Spodoptera exigua. The method, boiled down: (§1)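 Each value represents average percent mortality from eight wells. Larvae were kept in clear-covered trays at 25° C. for five to seven days on a 14-hour light, 10-hour dark schedule before scoring.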

Experiment [3] has as its system Cabbage Looper (Trichoplusia ni) ("CL"), second instar larvae. The experiment can be described thus: Bioassay on cabbage looper (CL), 128-well diet tray assay. Conditions: Trichoplusia ni. The method, boiled down: as §1
Where [4] appears, read: read-out: GPA (Biological Results, rating).
Setting [5] is: read-out: BAW (Biological Results, rating).
Setting [6] is: read-out: CL (Biological Results, rating).

Turning to `Cc1ccc(OCCC(F)(F)F)c(N2C(=O)CS/C2=N\C(=O)Nc2ccc(-c3ncn(-c4ccc(C#N)cc4)n3)cc2F)c1` [Compound J288, (Z)-1-(4-(1-(4-Cyanophenyl)-1H-1,2,4-triazol-3-yl)-2-fluorophenyl)-3-(3-(5-methyl-2-(3,3,3-trifluoropropoxy)phenyl)-4-oxothiazolidin-2-ylidene)urea], the pest or weed control at 200 µg/mL in experiment [1] (setting [4]) lay within 0 to 80%. Moreover, the pest or weed control at 50 µg/cm2 in experiment [2] (setting [5]) and in experiment [3] (setting [6]) was 50 to 100% throughout.

With `Cc1ccc(COCC(F)(F)F)c(N2C(=O)CS/C2=N\C(=O)Nc2ccc(-c3ncn(-c4ccc(C#N)cc4)n3)cc2F)c1` [Compound J289, (Z)-1-(4-(1-(4-Cyanophenyl)-1H-1,2,4-triazol-3-yl)-2-fluorophenyl)-3-(3-(5-methyl-2-((2,2,2-trifluoroethoxy)methyl)phenyl)-4-oxothiazolidin-2-ylidene)urea], the pest or weed control at 200 µg/mL in experiment [1] (setting [4]) lay within 0 to 80%. Also, the pest or weed control at 50 µg/cm2 in experiment [2] (setting [5]) and in experiment [3] (setting [6]) was 50 to 100% each time.

On to `COC(C)c1ccc(C)cc1N1C(=O)CS/C1=N\C(=O)Nc1ccc(-c2ncn(-c3ccc(C#N)cc3)n2)cc1F` (stereo not drawn) [Compound J291, (Z)-1-(4-(1-(4-Cyanophenyl)-1H-1,2,4-triazol-3-yl)-2-fluorophenyl)-3-(3-(2-(1-methoxyethyl)-5-methylphenyl)-4-oxothiazolidin-2-ylidene)urea], for which the pest or weed control at 200 µg/mL in experiment [1] (setting [4]) lay in the range of 0 to 80%. Besides, the pest or weed control at 50 µg/cm2 in experiment [2] (setting [5]) and in experiment [3] (setting [6]) was 50 to 100% each time.

With `COc1ccc(C(C)C)c(N2C(=O)CS/C2=N\C(=O)Nc2ccc(-c3ncn(-c4ccc(OC(F)(F)F)cc4)n3)cc2F)c1` [Compound J312], in experiment [1] (setting [4]), the pest or weed control at 200 µg/mL was in the range of 0 to 80%. Besides, the pest or weed control at 50 µg/cm2 in experiment [2] (setting [5]) and in experiment [3] (setting [6]) was 50 to 100% throughout.

In the case of `Cc1ccc(C(C)C)c(N2C(=O)C(Cl)S/C2=N\C(=O)Nc2ccc(-c3ncn(-c4ccc(OC(F)(F)F)cc4)n3)cc2)c1` (stereo not drawn) [Compound J314, (Z)-1-(5-Chloro-3-(2-isopropyl-5-methylphenyl)-4-oxothiazolidin-2-ylidene)-3-(4-(1-(4-(trifluoromethoxy)phenyl)-1H-1,2,4-triazol-3-yl)phenyl)urea], the pest or weed control at 200 µg/mL in experiment [1] (setting [4]) lay within 0 to 80%. Also, the pest or weed control at 50 µg/cm2 in experiment [2] (setting [5]) and in experiment [3] (setting [6]) was 50 to 100% throughout.

In the case of `Cc1ccc(OCCC(F)(F)F)c(N2C(=O)CS/C2=N\C(=O)Nc2ccc(-c3ncn(-c4ccc(C(F)(F)F)cc4)n3)cc2)c1` [Compound J315, (Z)-1-(3-(5-Methyl-2-(3,3,3-trifluoropropoxy)phenyl)-4-oxothiazolidin-2-ylidene)-3-(4-(1-(4-(trifluoromethyl)phenyl)-1H-1,2,4-triazol-3-yl)phenyl)urea], the pest or weed control at 200 µg/mL in experiment [1] (setting [4]) was 0 to 80%. The pest or weed control at 50 µg/cm2 in experiment [2] (setting [5]) and in experiment [3] (setting [6]) was 50 to 100% throughout.

In the case of `Cc1ccc(OCCC(F)(F)F)c(N2C(=O)CS/C2=N\C(=O)Nc2ccc(-c3ncn(-c4ccc(OC(F)(F)F)cc4)n3)cc2)c1` [Compound J316, (Z)-1-(3-(5-Methyl-2-(3,3,3-trifluoropropoxy)phenyl)-4-oxothiazolidin-2-ylidene)-3-(4-(1-(4-(trifluoromethoxy)phenyl)-1H-1,2,4-triazol-3-yl)phenyl)urea], in experiment [1] (setting [4]), the pest or weed control at 200 µg/mL is 0 to 80%. Besides, the pest or weed control at 50 µg/cm2 in experiment [2] (setting [5]) and in experiment [3] (setting [6]) was 50 to 100% in each case.

As to `CC(C)c1ccc(N(C)C)cc1N1C(=O)CS/C1=N\C(=O)Nc1ccc(-c2ncn(-c3ccc(OC(F)(F)F)cc3)n2)cc1F` [Compound J318, (Z)-1-(3-(5-(Dimethylamino)-2-isopropylphenyl)-4-oxothiazolidin-2-ylidene)-3-(2-fluoro-4-(1-(4-(trifluoromethoxy)phenyl)-1H-1,2,4-triazol-3-yl)phenyl)urea], the pest or weed control at 200 µg/mL in experiment [1] (setting [4]) was 0 to 80%. The pest or weed control at 50 µg/cm2 in experiment [2] (setting [5]) and in experiment [3] (setting [6]) was 50 to 100% throughout.

With `CC(C)c1ccc(N(C)C)cc1N1C(=O)CS/C1=N\C(=O)Nc1ccc(-c2ncn(-c3ccc(OC(F)(F)F)cc3)n2)cc1` [Compound J319, (Z)-1-(3-(5-(Dimethylamino)-2-isopropylphenyl)-4-oxothiazolidin-2-ylidene)-3-(4-(1-(4-(trifluoromethoxy)phenyl)-1H-1,2,4-triazol-3-yl)phenyl)urea], the pest or weed control at 200 µg/mL in experiment [1] (setting [4]) lay in the range of 0 to 80%. Also, the pest or weed control at 50 µg/cm2 in experiment [2] (setting [5]) and in experiment [3] (setting [6]) was 50 to 100% in each case.

Turning to `COc1ccc(C(C)C)c(N2C(=O)CS/C2=N\C(=O)Nc2ccc(-c3ncn(-c4cccc(C(F)(F)F)c4)n3)cc2)c1` [Compound J324, (Z)-1-(3-(2-Isopropyl-5-methoxyphenyl)-4-oxothiazolidin-2-ylidene)-3-(4-(1-(3-(trifluoromethyl)phenyl)-1H-1,2,4-triazol-3-yl)phenyl)urea], in experiment [1] (setting [4]), the pest or weed control at 200 µg/mL was 0 to 80%. In addition, the pest or weed control at 50 µg/cm2 in experiment [2] (setting [5]) and in experiment [3] (setting [6]) was 50 to 100% each time.

Turning to `CC(C)c1ccc(N(C)C)cc1N1C(=O)CS/C1=N\C(=O)Nc1ccc(-c2ncn(-c3cccc(C(F)(F)F)c3)n2)cc1` [Compound J325, (Z)-1-(3-(5-(Dimethylamino)-2-isopropylphenyl)-4-oxothiazolidin-2-ylidene)-3-(4-(1-(3-(trifluoromethyl)phenyl)-1H-1,2,4-triazol-3-yl)phenyl)urea], the pest or weed control at 200 µg/mL in experiment [1] (setting [4]) lay in the range of 0 to 80%. For the same compound, the pest or weed control at 50 µg/cm2 in experiment [2] (setting [5]) and in experiment [3] (setting [6]) was 50 to 100% in each case.

As to `Cc1ccc(OCCC(F)(F)F)c(N2C(=O)CS/C2=N\C(=O)Nc2ccc(-c3ncn(-c4cccc(C(F)(F)F)c4)n3)cc2)c1` [Compound J326, (Z)-1-(3-(5-Methyl-2-(3,3,3-trifluoropropoxy)phenyl)-4-oxothiazolidin-2-ylidene)-3-(4-(1-(3-(trifluoromethyl)phenyl)-1H-1,2,4-triazol-3-yl)phenyl)urea], in experiment [1] (setting [4]), the pest or weed control at 200 µg/mL lay within 0 to 80%. The pest or weed control at 50 µg/cm2 in experiment [2] (setting [5]) and in experiment [3] (setting [6]) was 50 to 100% in each case.

On to `Cc1ccc(C(C)C)c(N2C(=O)CS/C2=N\C(=O)Nc2ccc(-c3ncn(-c4cccc(OC(F)(F)F)c4)n3)cc2)c1` [Compound J327, (Z)-1-(3-(2-Isopropyl-5-methylphenyl)-4-oxothiazolidin-2-ylidene)-3-(4-(1-(3-(trifluoromethoxy)phenyl)-1H-1,2,4-triazol-3-yl)phenyl)urea], for which the pest or weed control at 200 µg/mL in experiment [1] (setting [4]) lay within 0 to 80%. Further, the pest or weed control at 50 µg/cm2 in experiment [2] (setting [5]) and in experiment [3] (setting [6]) was 50 to 100% each time.

With `COc1ccc(C(C)C)c(N2C(=O)CS/C2=N\C(=O)Nc2ccc(-c3ncn(-c4cccc(OC(F)(F)F)c4)n3)cc2)c1` [Compound J328, (Z)-1-(3-(2-Isopropyl-5-methoxyphenyl)-4-oxothiazolidin-2-ylidene)-3-(4-(1-(3-(trifluoromethoxy)phenyl)-1H-1,2,4-triazol-3-yl)phenyl)urea], in experiment [1] (setting [4]), the pest or weed control at 200 µg/mL is 0 to 80%. Besides, the pest or weed control at 50 µg/cm2 in experiment [2] (setting [5]) and in experiment [3] (setting [6]) was 50 to 100% each time.

In the case of `Cc1ccc(C(C)C)c(N2C(=O)CS/C2=N\C(=O)Nc2ccc(-c3ncn(-c4ccc(OCC#N)cc4)n3)cc2F)c1` [Compound J344, (Z)-1-(4-(1-(4-(Cyanomethoxy)phenyl)-1H-1,2,4-triazol-3-yl)-2-fluorophenyl)-3-(3-(2-isopropyl-5-methylphenyl)-4-oxothiazolidin-2-ylidene)urea], the pest or weed control at 200 µg/mL in experiment [1] (setting [4]) was in the range of 0 to 80%. Besides, the pest or weed control at 50 µg/cm2 in experiment [2] (setting [5]) and in experiment [3] (setting [6]) was 50 to 100% throughout.

`COC(C)c1ccc(C)cc1N1C(=O)CS/C1=N\C(=O)Nc1ccc(-c2ncn(-c3ccc(SC(F)(F)F)cc3)n2)cc1` (stereo not drawn) [Compound J350, (Z)-1-(3-(2-(1-methoxyethyl)-5-methylphenyl)-4-oxothiazolidin-2-ylidene)-3-(4-(1-(4-((trifluoromethyl)thio)phenyl)-1H-1,2,4-triazol-3-yl)phenyl)urea]: the pest or weed control at 200 µg/mL in experiment [1] (setting [4]) was 0 to 80%. Moreover, the pest or weed control at 50 µg/cm2 in experiment [2] (setting [5]) and in experiment [3] (setting [6]) was 50 to 100% in each case.

On to `COC(C)c1ccc(C)cc1N1C(=O)CS/C1=N\C(=O)Nc1ccc(-c2ncn(-c3ccc(S(=O)(=O)C(F)(F)F)cc3)n2)cc1C` (stereo not drawn) [Compound J362, (Z)-1-(3-(2-(1-Methoxyethyl)-5-methylphenyl)-4-oxothiazolidin-2-ylidene)-3-(2-methyl-4-(1-(4-((trifluoromethyl)sulfonyl)phenyl)-1H-1,2,4-triazol-3-yl)phenyl)urea], for which, in experiment [1] (read-out: GPA rating), the pest or weed control at 200 µg/mL fell in the range of 0 to 80%. In addition, the pest or weed control at 50 µg/cm2 in experiment [2] (read-out: BAW rating) and in experiment [3] (read-out: CL rating) was 50 to 100% throughout.

On to `Cc1ccc(COCC(F)(F)F)c(N2C(=O)CS/C2=N\C(=O)Nc2ccc(-c3ncn(-c4ccc(S(=O)(=O)C(F)(F)F)cc4)n3)cc2F)c1` [Compound J363, (Z)-1-(2-Fluoro-4-(1-(4-((trifluoromethyl)sulfonyl)phenyl)-1H-1,2,4-triazol-3-yl)phenyl)-3-(3-(5-methyl-2-((2,2,2-trifluoroethoxy)methyl)phenyl)-4-oxothiazolidin-2-ylidene)urea], for which the pest or weed control at 200 µg/mL in experiment [1] (read-out: GPA rating) lay in the range of 0 to 80%. Besides, the pest or weed control at 50 µg/cm2 in experiment [2] (read-out: BAW rating) and in experiment [3] (read-out: CL rating) was 50 to 100% in each case.
